Measurements published in patent publication US6214345A, “Lysosomal enzyme-cleavable antitumor drug conjugates” (Bristol-Myers Squibb Co., priority 1993, dated 2001).
Counter-ions that a name gives are not always drawn.

What was measured:
Bovin spleen cathepsin B = target: T1, Bovin spleen cathepsin B (Bos taurus, UniProt P07688); experiment: Cathepsin B unmasking of Z-Phe-Lys-PABC-DOX (Test III); assay type: biochemical, bovine; conditions: pH 5.0 acetate buffer, about 37° C., [Substrate]=40 μM, [Cathepsin B]=ca. 41 nM
T1 construct: purchased Sigma; host or cells: bovine spleen

[1] = Human plasma stability of Z-Phe-Lys-PABC-DOX (Test IV); assay type: in vitro ADME; conditions: freshly drawn human plasma
Experimental: Aliquots (50 μl) were periodically removed and diluted with cold methanol (100 μl). The samples were centrifuged and the resulting liquid injected into the HPLC (conditions as above). Enough DOX was added to a separate sample of plasma to give a theoretical release of 1% from the substrate. This was successfully detected using the same methods.

HCT116 colon line = experiment: In vitro cytotoxicity assay (3H-thymidine uptake), HCT116; assay type: cell-based, human; conditions: antigen-negative HCT116, 2 hours exposure
Experimental: All dilutions were performed in quadruplicate.

cathepsin B = cathepsin B (Bos taurus, UniProt P07688)
Experimental: Bovin spleen cathepsin B (Sigma, EC 3.4.22.1, MW ca. 40,000) (10 units) was dissolved in 1 ml pH 5.0 acetate buffer (25 mM acetate+1 mM EDTA), giving a solution roughly 13.7 M. 6 μl of the enzyme solution was incubated with 12 μl of an activating solution (30 mM dithiothreitol and 15 mM EDTA) for about 15 minutes at room temperature. To this was added 2 ml of pH 5.0 acetate buffer (25 mM acetate with 1 mM EDTA) which had been incubated at about 37° C., followed by 8 μl of a 10 mM solution of Z-Phe-Lys-PABC-DOX in methanol ([Substrate]=40 μM, [Cathepsin B]=ca. 41 nM). The mixture was incubated at about 37° C., and aliquots were periodically removed and injected into the HPLC (C-18 column; 80:20 methanol/pH 2.8 triethylammonium formate (50 mM) buffer; 1 ml/min.; 495 mn detection wavelength).

[2] = tested on: L2987 human lung carcinoma xenografts; experiment: Antitumor activity against established L2987 human tumor xenografts (Test VI); assay type: in vivo, mice
Experimental: The BR96-PEP-DOX conjugate (MR=4.41) was evaluated in vivo (Table 1) against L2987 human lung carcinoma xenografts. Therapy was initiated 14 days after tumor implant when the tumors were approximately 75 mm 3 in size.

A2780 ovarian line = conditions: A2780, 2 hours exposure, 3H-thymidine uptake
Source text: (§1) L2987 is a lung adenocarcinoma line obtained from I. Hellstrom (Bristol-Myers Squibb, Seattle, Wash.). The HCT116 colorectal tumor line was obtained from M. Brattain (Baylor Inst., Tex.). A2780 is an ovarian carcinoma line obtained from K. Scanlon (National Cancer Institute).
(§2) Monolayer cultures of human carcinoma cells were harvested using trypsin-EDTA (GIBCO, Grand Island, N.Y.), and the cells counted and resuspended to 1×10^5 /ml in RPMI-1640 containing 10% heat inactivated fetal calf serum (RPMI-10% FCS). Cells (0.1 ml/well) were added to each well of 96 well microtiter plates and incubated overnight at about 37° C. in a humidified atmosphere of 5% CO2. Media was removed from the plates and serial dilutions of DOX or MAb-DOX conjugates added to the walls. All dilutions were performed in quadruplicate. Cells were exposed to DOX or MAb-DOX conjugates for about 2 hours at about 37° C. in a humidified atmosphere of 5% CO2. Plates were then centrifuged (200×g, 5 min.), the drug or conjugate removed, and the cells washed 3× with RPMI-10% FCS. The cells were cultured in RPMI-10% FCS (37° C., 5% CO2) for an additional 48 hours. At this time the cells were pulsed for about 2 hours with 1.0 uCi/well of ^3 H-thymidine (New England Nuclear, Boston, Mass.).

L2987 lung line = conditions: L2987, 2 hours exposure, 3H-thymidine uptake
Source text: as §1, §2

[3] = 0.31 mg/kg DOX, 20 mg/kg BR96 per injection
[4] = 0.63 mg/kg DOX, 39 mg/kg BR96 per injection
[5] = 1.25 mg/kg DOX, 78 mg/kg BR96 per injection
[6] = 2.5 mg/kg DOX, 156 mg/kg BR96 per injection
[7] = 5 mg/kg DOX, 312 mg/kg BR96 per injection
[8] = 10 mg/kg DOX, 625 mg/kg BR96 per injection
[9] = 20 mg/kg DOX, 1250 mg/kg BR96 per injection

## COc1cccc2c1C(=O)c1c(O)c3c(c(O)c1C2=O)C[C@@](O)(C(=O)CO)C[C@@H]3O[C@H]1C[C@H](NC(=O)OCc2ccc(NC(=O)[C@H](CCCCN)NC(=O)[C@H](Cc3ccccc3)NC(=O)OCc3ccccc3)cc2)[C@H](O)[C@H](C)O1 [Z-Phe-Lys-PABC-DOX, Z-Phe-Lys-PABC-DOX-HCl]
Bovin spleen cathepsin B
  half-life of release of free DOX: 7 to 9 min
[1]; over 7 hours
  free DOX detected in plasma: No free DOX was detected
[1]; no release over 7 hours
  half-life: > 14.6 days

## BR96-succinimidocaproyl-phenylalanine-lysine-p-aminovenzyl-carbamoyloxy-doxorubicin [BR96-DOX]
HCT116 colon line
  in vitro activity: not active
Cathepsin B; cathepsin B, pH 5.3, about 37° C., HPLC
  half-life of release of free DOX: about 3 hours
Cathepsin B; pH 5.3 (37° C.)
  t1/2 of DOX release by cathepsin B: 3.0 h
[2]; [3]
  % Tumor Regressions Complete: 0%
  % Tumor Regressions Partial: 0%
  Log Cell Kill: 0.2
[2]; [4]
  % Tumor Regressions Complete: 0%
  % Tumor Regressions Partial: 0%
  Log Cell Kill: 0.3
[2]; [5]
  % Tumor Regressions Complete: 10%
  % Tumor Regressions Partial: 10%
  Log Cell Kill: 2.4
[2]; [6]
  % Tumor Regressions Complete: 90%
  % Tumor Regressions Partial: 10%
  Log Cell Kill: > 7
[2]; [7]
  % Tumor Regressions Complete: 100%
  % Tumor Regressions Partial: 0%
  Log Cell Kill: > 7
[2]; [8]
  % Tumor Regressions Complete: 89%
  % Tumor Regressions Partial: 11%
  Log Cell Kill: > 7
[2]; [9]
  % Tumor Regressions Complete: 100%
  % Tumor Regressions Partial: 0%
  Log Cell Kill: > 7
[2]; doses of 1.25-20 mg/kg equivalent DOX/injection
  activity and tolerability in vivo: active and tolerated
[2]; doses of ≥2.5 mg/kg equivalent DOX/injection
  activity compared with optimized DOX: significantly more active than optimized DOX
A2780 ovarian line
  in vitro potency, fold less potent than unconjugated DOX: approximately 50 fold
L2987 lung line
  in vitro potency compared with unconjugated DOX: equivalent to that of unconjugated DOX

## COc1cccc2c1C(=O)c1c(O)c3c(c(O)c1C2=O)C[C@@](O)(C(=O)CO)C[C@@H]3O[C@H]1C[C@H](N)[C@H](O)[C@H](C)O1 [DOX, Doxorubicin, reference compound]
HCT116 colon line
  in vitro activity: sensitive
[2]; DOX 6 mg/kg/injection
  % Tumor Regressions Complete: 0%
  % Tumor Regressions Partial: 0%
  Log Cell Kill: 1.5
[2]; DOX 8 mg/kg/injection
  % Tumor Regressions Complete: 10%
  % Tumor Regressions Partial: 0%
  Log Cell Kill: 2.4
